Experimental data taken from patent US20250295113A1, “COMPOSITION AND METHOD FOR CONTROLLING WEEDS” (priority 2022, published 2025).

How the values were obtained:
[1] = tested on: Torpedograss; assay: Example 3: Torpedograss control trial; assay type: in vivo, Torpedograss (Panicum repens); details: quinclorac 573 g ai/ha with and without metcamifen 75 g ai/ha; two applications, 21-day interval
Source text: (§1) Two applications were made on a 21-day interval.

[2] = tested on: blanket crabgrass; assay: Example 4: blanket crabgrass control trial in Floratam St Augustinegrass; assay type: in vivo, blanket crabgrass (Digitaria serotina); details: quinclorac 573 g ai/ha; two applications, 21-day interval
Source text: as §1

[3] = tested on: St Augustinegrass variety 'Floratam'; assay: Example 1: Floratam St Augustinegrass phytotoxicity trial; details: quinclorac alone, both formulations, 573 g ai/ha, two applications on 21-day interval

SMILES: O=C(O)c1c(Cl)ccc2cc(Cl)cnc12 [Quinclorac, 3,7-dichloro-8-quinolinecarboxylic acid]
- Torpedograss control / efficacy (in words) [1]: provided control of Torpedograss
- blanket crabgrass control (in words) [2]: excellent, significant control
- injury to Floratam St Augustinegrass (in words) [3]: significant injury
